Data taken from US12643913B2, “Mcl-1 inhibitor formulations” (AMGEN INC., priority 2020, dated 2026).
Entries after “also recorded” stand apart in the source; their conditions may differ.

Experiment: Clinical observations in the beagle dog PK study
Type: in vivo, male beagle dogs
Conditions: 3 mg/kg PO, individual dogs
Description: Briefly, during each phase five male beagle dogs were assigned to each group of the study. All animals were fasted for at least eight hours prior to dosing and through the first four hours of blood sample collection for each phase. Food was returned within 30 minutes following collection of the last blood sample at the four-hour collection interval. Each animal in Phase 1, received a single oral (PO) gavage dose of the appropriate test article formulation as outlined in the study design Table 6. Oral gavage dosing formulations were continuously stirred throughout dosing. The gavage tube was rinsed with approximately 10 mL of tap water following dosing (prior to removal of the gavage tube). Following each study phase a 7-day washout period was allowed prior to the dosing of the next phase. The same five dogs were assigned to either group 1 or group 2 formulations for the duration of the study.
Test Article Administration: A total of 10 male beagle dogs were initially assigned to study. All animals were fasted for at least eight hours prior to dosing and through the first four hours of blood sample collection for each phase, where applicable (food will be returned within 30 minutes following collection of the last blood sample at the four hour collection interval, where applicable). Total fasting time […] 24 hours.
Different pre-treatments were assigned for each phase of the study to mimic several scenarios: • 1. No pre-treatment was administered for Phase 1 as it served as a control. • 2. During Phase 2, at 1 hour 54 minutes to 1 hour 58 minutes prior to dose administration, all animals were pretreated with two 20 mg (40 mg total) oral tablets of famotidine followed by a 10 mL dose of deionized water. […] This was used to determine the role of stomach pH on exposure. • 3. During Phases 3 and 4, at 30 to 38 minutes prior to dose administration, all animals were pretreated with a single intramuscular dose of pentagastrin in phosphate buffered saline, pH 7.4, at a dose level of 0.006 mg/kg and a dose volume of 0.05 mL/kg. The pentagastrin dose was used to ensure that the dogs stomach pH was normalized to pH ˜2.0 as it is known that the dogs stomach pH is often higher than that of humans under resting conditions. • 4. In addition, […], at 1 hour 3 minutes to 1 hour 6 minutes prior to dose administration and 4 hours 10 minutes to 4 hours 11 minutes following dose by oral gavage at a dose level of 3 mg/kg and a dose volume of 4 mL/kg. This final phase was used to study if P-gp played a role in absorption.

Positive clinical findings (observation) (Phase 1 (Days 1 to 7), no pre-treatment): Yellow, frothy vomitus | Positive clinical findings (observation) (Phase 4 (Days 22 to 24), pentagastrin pre-treatment and inhibitor GF120918 pre- and post-treatment): Small amount of white,
SMILES: CO[C@]1(CN2CCN3CCCC[C@@H]3C2)/C=C/C[C@H](C)[C@@H](C)S(=O)(=O)NC(=O)c2ccc3c(c2)N(C[C@@H]2CC[C@H]21)C[C@@]1(CCCc2cc(Cl)ccc21)CO3 [AMG 397 Amorphous]
Positive clinical findings (observation) (Phase 2 (Days 8 to 14), famotidine pre-treatment): White, frothy vomitus; also recorded: Soft feces; also recorded: Yellow, frothy vomitus | Positive clinical findings (observation) (Phase 3 (Days 15 to 21), pentagastrin pre-treatment): Salivation; also recorded: White, frothy vomitus; also recorded: Yellow, frothy vomitus | Positive clinical findings (observation) (Phase 5 (Days 71 to 73), inhibitor GF120918 pre- and post-treatment, 3 mg/kg): Salivation; also recorded: Watery feces; also recorded: Yellow, frothy vomitus; also recorded: Yellow, discolored feces; also recorded: Mucoid feces; also recorded: Tan, frothy vomitus
